Experimental data published in patent US10799530B1, “Composition and method for the prevention and treatment of obesity” (Vector Vitale IP LLC, priority 2019, dated 2020).
Where “and” joins values, the source holds several entries; their conditions need not be identical. Equal entries are not always repeated.

Experiments:
Assay type in all cases: in vivo
rats [1] = test: Glucose tolerance test; settings: fast overnight, one value per animal
Experimental: A glucose tolerance test was performed to determine a potential effect of zinc isotope on the dynamics of glucose concentration in the blood flow. Experimental procedure: laboratory animals are given intragastric injections of either normal saline solution or zinc in saline solution (5 mg/kg) in a volume of 2 ml. After that, 60 minutes after the aforementioned injections, the basal level of glucose is measured and a glucose solution is injected in an amount of 3 g/kg in a volume of 2 ml using the same route of administration. The blood glucose levels are measured again 60 minutes after injecting the glucose solution.

rats [2] = test: Serum insulin level after intraperitoneal administration; settings: intact rats; 3750 μg of zinc per 1 kg intraperitoneally every other day, 7 injections
Experimental: Animals are placed in cages, 4 per cage, with free access to food/water. […] Administration is performed every other day, in the amount of 7 injections per animal (intraperitoneal method of drug administration).
Samples in volume of 100 μl were incubated in microplate wells at 4° C. overnight. […] Non-specific binding sites were blocked with a 5% fat-free milk blocking solution and incubated for 1 hour at 37° C. After washing, the separate wells of the microplate were loaded with primary rabbit anti-insulin antibodies and incubated for 1 hour at 37° C. After incubation, the microplate wells were washed and loaded with appropriate secondary antibodies conjugated to horseradish peroxidase and incubated for another 1 hour at 37° C. […] The optical density was measured at 492 nm. The insulin concentrations were calculated using the calibration curve generated under the given conditions and human insulin of known concentration.)

rats [3] = test: Body weight, food and water consumption after intraperitoneal administration; settings: intact rats; 3750 μg of zinc per 1 kg intraperitoneally every other day, 7 injections
Experimental: The current dose was calculated by zinc.

rats [4] = test: Area of islets of Langerhans after intraperitoneal administration; settings: intact rats, day 7 after the last administration
Experimental: Animals are placed in cages, 4 per cage, with free access to food/water. […] Administration is performed every other day, in the amount of 7 injections per animal (intraperitoneal method of drug administration). The dose of the drug injected to each animal was calculated on the basis of the ratio: 3750 μg of zinc per 1 kg of animal body weight.

Row | Molecule | Glucose tolerance test, 60 min (1 h after glucose administration) (rats [1]; effector dose 5 mg/kg in 2 ml, glucose 3 g/kg body weight in 2 ml) | Glucose tolerance test, 0 min (1 h after effector administration) (rats [1]; effector dose 5 mg/kg in a volume of 2 ml) | Serum insulin levels at day 7 after the withdrawal (rats [2]) | Serum insulin levels on the first day after the drug withdrawal (rats [2]) | Body weight of rats (rats [3]) | Area of islets of Langerhans compared to the control group and the zinc acetate group (rats [4])
1 | CC(=O)[O-].CC(=O)[O-].[Zn+2] [Zn acetate, Zinc acetate, reference compound] | also dropped, though not so strongly and 7.2 and 6.9 and 7.3 and 6.8 | 4.6 and 5.2 (2×) and 4.9 and 5.1 | drop in the insulin levels to the value of those of intact/control animals | significant increase | – | –
2 | zinc asparaginate [^64Zne] | – | – | significant increase in the insulin levels | slightly higher than in the group of intact animals | significant increase in the body weight | significant increase in the islet area
